{"source": "the NIST ThermoML archive (doi:10.1021/acs.jced.8b00292)", "key": {"[1]": {"experiment": "Molar enthalpy of transition or fusion", "settings": "Crystal; DSC"}, "[2]": {"settings": "Crystal; DSC"}}, "note": "Numbers after ± are expanded uncertainties."}
{"smiles": "Nc1nc(Cl)cc(Cl)n1", "note": "[2-amino-4,6-dichloropyrimidine]", "values": [{"measurement": "Molar enthalpy of transition or fusion", "setting": "[1]", "result": "4.66 ± 0.215", "unit": "kcal/mol"}, {"measurement": "Triple point temperature", "setting": "[2]", "result": "496.42 ± 1.2", "unit": "K"}]}
